Experimental data as given in US20240376097A1, “BCL-2 Inhibitor” (BeiGene Ltd., priority 2020, published 2024).
Like-named read-outs stand apart in the source and are kept apart here.

How the values were obtained:
[1] = target: recombinant human Bcl-2 D103Y protein (Homo sapiens (Human), UniProt P10415, D103Y); assay: Bcl-2-D103Y Biochemical Assay (TR-FRET); assay type: binding; settings: for IC50: TR-FRET, FITC labeled Bak peptide; for Ratio of Bcl-2 D103Y/Bcl-2 WT: ratio of IC50
In short: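 Recombinant human Bcl-2 D103Y binding to its ligand measured by TR-FRET (ex 337 nm, em 490/520 nm) with increasing compound concentrations. Percent inhibition from the 490/520 nm ratio; IC50 from four-parameter logistic fit.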

[2] = target: recombinant human Bcl-2-G101V protein (Homo sapiens (Human), UniProt P10415, G101V); assay: Bcl-2-G101V TR-FRET Assay; assay type: binding; settings: Bcl-2 G101V mutant, TR-FRET; read-out: Biochemical assay (IC50, nM) Bcl-2 G101V
In short: (§1)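 Displacement of ligand from recombinant human Bcl-2-G101V measured by TR-FRET (ex337 nm, em490/520 nm), inhibition derived from the 490/520 ratio across compound titrations. IC50 from four-parameter logistic fit.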

[3] = test system: recombinant human Bcl-2-G101V protein; assay: Bcl-2-G101V TR-FRET Assay; assay type: binding; settings: ratio of biochemical IC50 Bcl-2 G101V / Bcl-2 WT
In short: as §1

[4] = test system: BCL-2 G101V knock-in cell line H96 (derive from RS4;11); assay: Bcl 2-G101V Knock-In RS4;11 Cell Proliferation Assay; assay type: cell-based; settings: Homo sapiens, RS4;11 Bcl-2 G101V knock-in clone H96, 48 hrs, CellTiter-GLO, read-out: Cellular proliferation assay (IC50, nM) RS4
In short: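 H96, a CRISPR-generated RS4;11 clone carrying BCL2-G101V knock-in (WES/RNA-seq validated), seeded 50,000 per well and exposed 48 h at 37 °C to 10-point dilutions topping at 1 or 10 μM. Viability by CellTiter-Glo luminescence; mean IC50.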

[5] = target: Recombinant human Bcl-2 protein (Homo sapiens (Human), UniProt P10415); assay: Bcl-2 TR-FRET Assay; assay type: binding
In short: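 0.05 nM recombinant Bcl-2 preincubated 0.5 h at room temperature with 10-point compound dilutions (top final 1, 0.1, 0.02 or 0.01 uM) in pH 7.5 phosphate buffer. FITC-Bak peptide (0.5 nM) and anti-6His Tb cryptate then added for 1 h. TR-FRET read; IC50 from four-parameter logistic fit.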

[6] = test system: RS4;11 (BCL-2 dependent acute lymphoblastic leukemia cell line); assay: RS4;11 Cell Proliferation Assay; assay type: cell-based; settings: Homo sapiens, RS4-11, RS4;11 cells, read-out: Cellular proliferation assay (IC50, nM) RS4
In short: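 RS4;11 cells, 50,000 per well in RPMI-1640 with 10% FBS, treated 48 h at 37 °C with a 10-point dilution series topping at 1 μM. Viability read by CellTiter-Glo ATP luminescence; mean IC50 reported.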

[7] = Bcl-2 wild type, TR-FRET, read-out: Biochemical assay (IC50, nM) Bcl-2 WT
[8] = wild type Bcl-2, unit inferred, read-out: Bcl-2 WT

Row | SMILES | IC50 [1] [nM] | Ratio of Bcl-2 D103Y/Bcl-2 WT [1] | IC50 [2] [nM] | Ratio of Bcl-2 G101V/WT [3] | IC50 [4] [nM] | IC50 [5, 7] [nM] | IC50 [5, 8] [nM] | IC50 [6] [nM]
1 | COc1cc(CN2CCN(C3CC4(C3)CN(c3ccc(C(=O)NS(=O)(=O)c5ccc(NC[C@H]6CC[C@](C)(O)CC6)c([N+](=O)[O-])c5)c(Oc5cnc6[nH]ccc6c5)c3)C4)[C@H](c3ccccc3C(C)C)C2)cc2c1OCCC2 [Example 318, 2-((1H-pyrrolo[2,3-b]pyridin-5-yl)oxy)-N-((4-((((1r,4r)-4-hydroxy-4-methylcyclohexyl)methyl)amino)-3-nitrophenyl)sulfonyl)-4-(6-((R)-2-(2-isopropylphenyl)-4-((8-methoxychroman-6-yl)methyl)piperazin-1-yl)-2-azaspiro[3.3]heptan-2-yl)benzamide] | 0.052 | 0.9 | 0.16 | 2.9 | 0.31 | 0.056 | 0.056 | 0.2
2 | COc1cc(CN2CCN(C3CC4(CCN(c5ccc(C(=O)NS(=O)(=O)c6ccc(NC[C@H]7CC[C@](C)(O)CC7)c([N+](=O)[O-])c6)c(Oc6cnc7[nH]ccc7c6)c5)CC4)C3)[C@H](c3ccccc3C(C)C)C2)cc2c1OCC2 [Example 239, 2-((1H-pyrrolo[2,3-b]pyridin-5-yl)oxy)-N-((4-((((1r,4r)-4-hydroxy-4-methylcyclohexyl)methyl)amino)-3-nitrophenyl)sulfonyl)-4-(2-((R)-2-(2-isopropylphenyl)-4-((7-methoxy-2,3-dihydrobenzofuran-5-yl)methyl)piperazin-1-yl)-7-azaspiro[3.5]nonan-7-yl)benzamide] | 0.12 | 1.5 | 0.2 | 2.6 | 0.29 | 0.076 | 0.076 | 0.12
3 | [2H]C([2H])([2H])Oc1ccc(CN2CCN(C3CC4(C3)CN(c3ccc(C(=O)NS(=O)(=O)c5ccc(NC[C@H]6CC[C@](C)(O)CC6)c([N+](=O)[O-])c5)c(Oc5cnc6[nH]ccc6c5)c3)C4)[C@H](c3ccccc3C(C)C)C2)cc1OC([2H])([2H])[2H] [Example 243, 2-((1H-pyrrolo[2,3-b]pyridin-5-yl)oxy)-4-(6-((R)-4-(3,4-bis(methoxy-d3)benzyl)-2-(2-isopropylphenyl)piperazin-1-yl)-2-azaspiro[3.3]heptan-2-yl)-N-((4-((((1r,4r)-4-hydroxy-4-methylcyclohexyl)methyl)amino)-3-nitrophenyl)sulfonyl)benzamide] | 0.041 | 1 | 0.086 | 2.1 | 0.22 | 0.04 | 0.041 | 0.12
4 | COc1cc(CN2CCN(C3CC4(C3)CN(c3ccc(C(=O)NS(=O)(=O)c5ccc(NC[C@H]6CC[C@](C)(O)CC6)c([N+](=O)[O-])c5)c(Oc5cnc6[nH]cc(F)c6c5)c3)C4)[C@H](c3ccccc3C(C)C)C2)cc2c1OCCCC2 [Example 347, 2-((3-fluoro-1H-pyrrolo[2,3-b]pyridin-5-yl)oxy)-N-((4-((((1r,4r)-4-hydroxy-4-methylcyclohexyl)methyl)amino)-3-nitrophenyl)sulfonyl)-4-(6-((R)-2-(2-isopropylphenyl)-4-((9-methoxy-2,3,4,5-tetrahydrobenzo[b]oxepin-7-yl)methyl)piperazin-1-yl)-2-azaspiro[3.3]heptan-2-yl) benzamide] | 0.28 | 1.4 | 0.47 | 2.3 | 0.34 | 0.2 | 0.2 | 0.13
5 | COc1cc(CN2CCN(C3CC4(CCN(c5ccc(C(=O)NS(=O)(=O)c6ccc(NC[C@H]7CC[C@](C)(O)CC7)c([N+](=O)[O-])c6)c(Oc6cnc7[nH]cc(F)c7c6)c5)CC4)C3)[C@H](c3ccccc3C(C)C)C2)ccc1F [Example 190, 2-((3-fluoro-1H-pyrrolo[2,3-b]pyridin-5-yl)oxy)-4-(2-((R)-4-(4-fluoro-3-methoxybenzyl)-2-(2-isopropylphenyl)piperazin-1-yl)-7-azaspiro[3.5]nonan-7-yl)-N-((4-((((1r,4r)-4-hydroxy-4-methylcyclohexyl)methyl)amino)-3-nitrophenyl)sulfonyl)benzamide] | 0.34 | 1.5 | 0.62 | 2.7 | 0.37 | 0.23 | 0.23 | 0.13
6 | COc1cc(CN2CCN(C3CC4(C3)CN(c3ccc(C(=O)NS(=O)(=O)c5ccc(NC[C@H]6CC[C@](C)(O)CC6)c([N+](=O)[O-])c5)c(Oc5cnc6[nH]cc(F)c6c5)c3)C4)[C@H](c3ccccc3C(C)C)C2)cc2ccoc12 [Example 306, 2-((3-fluoro-1H-pyrrolo[2,3-b]pyridin-5-yl)oxy)-N-((4-((((1r,4r)-4-hydroxy-4-methylcyclohexyl)methyl)amino)-3-nitrophenyl)sulfonyl)-4-(6-((R)-2-(2-isopropylphenyl)-4-((7-methoxybenzofuran-5-yl)methyl)piperazin-1-yl)-2-azaspiro[3.3]heptan-2-yl)benzamide] | 0.31 | 1.0 | 0.97 | 3.1 | 0.15 | 0.31 | 0.31 | 0.12
7 | COc1cc(CN2CCN(C3CC4(C3)CN(c3ccc(C(=O)NS(=O)(=O)c5ccc(NC[C@H]6CC[C@](C)(O)CC6)c([N+](=O)[O-])c5)c(Oc5cnc6[nH]cc(F)c6c5)c3)C4)[C@H](c3ccccc3C(C)C)C2)cc(C)c1OC [Example 231, 4-(6-((R)-4-(3,4-dimethoxy-5-methylbenzyl)-2-(2-isopropylphenyl)piperazin-1-yl)-2-azaspiro[3.3]heptan-2-yl)-2-((3-fluoro-1H-pyrrolo[2,3-b]pyridin-5-yl)oxy)-N-((4-((((1r,4r)-4-hydroxy-4-methylcyclohexyl)methyl)amino)-3-nitrophenyl)sulfonyl) benzamide] | 0.45 | 1.7 | 0.35 | 1.3 | 0.38 | 0.27 | 0.27 | 0.12
8 | CC(C)c1ccccc1C1CN(Cc2ccccc2)CCN1C1CC2(CCN(c3ccc(C(=O)NS(=O)(=O)c4ccc(NCC5(F)CCOCC5)c([N+](=O)[O-])c4)c(Oc4cnc5[nH]ccc5c4)c3)CC2)C1 (stereo not drawn) [Example 27, 2-((1H-pyrrolo[2,3-b]pyridin-5-yl)oxy)-4-(2-(4-benzyl-2-(2-isopropylphenyl)piperazin-1-yl)-7-azaspiro[3.5]nonan-7-yl)-N-((4-(((4-fluorotetrahydro-2H-pyran-4-yl)methyl)amino)-3-nitrophenyl)sulfonyl)benzamide] | 0.49 | 1.8 | 2.7 | 10.0 | 7.77 | 0.27 | 0.27 | 1.05
9 | CC(C)c1ccccc1[C@@H]1CN(Cc2ccc(Cl)cc2)CCN1C1CC2(CCN(c3ccc(C(=O)NS(=O)(=O)c4ccc(NC[C@H]5CC[C@](C)(O)CC5)c([N+](=O)[O-])c4)c(Oc4cnc5[nH]ccc5c4)c3)CC2)C1 (single isomer, unassigned) [Example 29a, 2-((1H-pyrrolo[2,3-b]pyridin-5-yl)oxy)-4-(2-((R or S)-4-(4-chlorobenzyl)-2-(2-isopropylphenyl)piperazin-1-yl)-7-azaspiro[3.5]nonan-7-yl)-N-((4-((((1r,4r)-4-hydroxy-4-methylcyclohexyl)methyl)amino)-3-nitrophenyl)sulfonyl)benzamide] | 0.38 | 1.9 | 0.72 | 3.5 | 1.42 | 0.2 | 0.2 | 0.22
